Experimental data reported in patent US20220370416A1, “COMPOUNDS AND METHODS FOR TARGETED DEGRADATION OF KRAS” (Arvinas Operations, Inc., priority 2020, published 2022).

Assays:
KRAS^G12C = KRAS^G12C (Homo sapiens, UniProt P01116, G12C); assay: KRAS^G12C degradation in heterozygous NCI-H23 cells; type: cell-based; parameters: endogenous in cells; host or cells: NCI-H23
pErk [1] = settings: NCI-H2030, 24 hour dose response
Protocol: The ability of LC-2 to modulate Erk signaling was investigated in NCI-H2030 and NCI-H23 cells during a 24 hour dose response.
NCI-H2030, NCI-H23, and NCI-H358 were cultured in RPMI (ATCC30-2001) supplemented with 10% FBS (Biological Industries; cat. no. S1480) and 1% Penicillin-Streptomycin (ThermoFisher; cat. no. 15140122). HCT-116 cells were maintained in high glucose DMEM (ThermoFisher; cat. no. 11965084) supplemented as above. […] DPBS (ThermoFisher; cat. no. 14190250) was used to wash cells and 0.25% Trypsin-EDTA (ThermoFisher; cat. no. 252000-056) was used to detach cells for passaging.
Cell lysates were clarified at 21000×g for 15 mins at 4° C. Protein levels were quantified using a 50:1 mixture of bicinchoninic acid solution (Millipore Sigma; cat. no. B9643) and 4% (w/v) copper(II) sulfate solution (Millipore Sigma; cat. no. C2284) incubated at 37° C. for 30 mins. Absorbance values at 560 nm were read on an EnVision 2101 Multilabel Reader (PerkinElmer). Proteins were separated using 26 well Criterion TGX precast 4-15% (cat. no. 5671085) or 8-16% (cat. no. 5671105) gradient midi gels. […]
Band intensities were quantified using BioRad's Image Lab Software. […] Data was analyzed by computing one-way ANOVAs or two-way ANOVAs (for grouped data) using multiple comparisons in which the mean of DMSO was compared to all treatment means using GraphPad Prism 7. […]

pErk [2] = assay: Erk signaling (pErk) during a 24 hour treatment in SW1573 cells; type: cell-based; settings: 24 hour treatment time course (FIG. 11)
pErk [3] = assay: Erk signaling (pErk, total Erk) by immunoblot in SW1573 cells; type: cell-based; settings: SW1573, 2.5 μM
Protocol: (§1) Signaling kinetics were monitored during a 24 hour time course in MIA PaCa2, NCI-H23, and SW1573 cells treated with 2.5 μM LC-2. Modulation of Erk signaling by both MRTX and LC-2 occurs within 6 hours in MIA PaCa-2 and NCI-H23 cells (FIGS. 10A, 10B, and 11). pErk was suppressed by both compounds at 6 and 24 hours in each cell lines. […] Total Erk was increased in LC-2 treated cells compared to DMSO at all time points indicating the initiation of a positive feedback loop upon KRAS^G12C degradation and pErk inhibition.
(§2) NCI-H2030 (CRL-5914), MIA PaCa-2 (CRL-1420), NCI-H23 (CRL-5800), NCI-H358 (CRL-5807), and HCT-116 (CCL-247) cells were obtained from ATCC, expanded immediately, and frozen down. Vials were thawed and used within 20 passages. SW1573 cells were a gift from Arvinas and were handled in the same manner. NCI-H2030, NCI-H23, and NCI-H358 were cultured in RPMI (ATCC30-2001) supplemented with 10% FBS (Biological Industries; cat. no. S1480) and 1% Penicillin-Streptomycin (ThermoFisher; cat. no. 15140122). HCT-116 cells were maintained in high glucose DMEM (ThermoFisher; cat. no. 11965084) supplemented as above. MIA PaCa-2 cells were cultured in high glucose DMEM supplemented with 10% FBS, 2.5% horse serum (ThermoFisher; cat. no. 26050-088; lot 2109875), and 1% Penicillin-Streptomycin. SW1573 cells were maintained in DMEM/F12 Nutrient Mix with GlutaMAX supplement (ThermoFisher; cat. no. 10565018) with 10% FBS and 1% Penicillin-Streptomycin added. DPBS (ThermoFisher; cat. no. 14190250) was used to wash cells and 0.25% Trypsin-EDTA (ThermoFisher; cat. no. […]) was used to detach cells for passaging. […] The VHL ligand was generously provided by Arvinas. […]
(§3) Cell lysates were clarified at 21000×g for 15 mins at 4° C. Protein levels were quantified using a 50:1 mixture of bicinchoninic acid solution (Millipore Sigma; cat. no. B9643) and 4% (w/v) copper(II) sulfate solution (Millipore Sigma; cat. no. C2284) incubated at 37° C. for 30 mins. Absorbance values at 560 nm were read on an EnVision 2101 Multilabel Reader (PerkinElmer). […]

[4] = as above; type: cell-based; settings: SW1573, 2.5 μM, all time points
Protocol: as §1, §2, §3

Chain of KRAS^G12C (P01116 1-188 isoform P01116-2 G12C): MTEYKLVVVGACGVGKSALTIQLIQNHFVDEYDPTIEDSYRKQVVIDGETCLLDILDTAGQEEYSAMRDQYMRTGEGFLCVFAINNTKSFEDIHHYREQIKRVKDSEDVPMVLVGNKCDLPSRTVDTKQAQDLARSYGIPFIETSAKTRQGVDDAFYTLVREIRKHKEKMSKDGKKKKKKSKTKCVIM

## C=C(F)C(=O)N1CCN(c2nc(OC[C@@H]3CCCN3CCCOCCC(=O)N[C@H](C(=O)N3C[C@H](O)C[C@H]3C(=O)NCc3ccc(-c4scnc4C)cc3)C(C)(C)C)nc3c2CCN(c2cccc4cccc(Cl)c24)C3)C[C@@H]1CC#N [LC-2, (2S,4R)-1-((S)-2-(3-(3-((S)-2-(((7-(8-chloronaphthalen-1-yl)-4-((S)-3-(cyanomethyl)-4-(2-fluoroacryloyl)piperazin-1-yl)-5,6,7,8-tetrahydropyrido[3,4-d]pyrimidin-2-yl)oxy)methyl)pyrrolidin-1-yl)propoxy)propanamido)-3,3-dimethylbutanoyl)-4-hydroxy-N-(4-(4-methylthiazol-5-yl)benzyl)pyrrolidine-2-carboxamide]
KRAS^G12C; NCI-H23 cells, neddylation inhibition vs inhibition of lysosomal acidification (FIG. 5B)
  rescue of induced KRAS^G12C degradation (mechanism): Inhibition of neddylation, but not inhibition of lysosomal acidification, rescues
KRAS^G12C; heterozygous NCI-H23 cells (FIG. 4D)
  induction of KRAS^G12C degradation: induces KRAS^G12C degradation
pErk [1]
  pErk signaling: dose-dependent decrease in signaling
  total Erk levels: elevated in a dose-dependent manner
pErk [2]
  pErk (Erk signaling): pErk is decreased throughout the time course
pErk [3]; 24 hour time course
  phosphorylated Erk over time: inhibited by 2.5 μM LC-2 between 1 and 4 hours, however pErk levels rebounded between 8 and 24 hours
pErk [3]; 24 hours
  pErk levels versus DMSO: significantly lower
[4]
  total Erk versus DMSO: increased
